Assay results reported in patent US8796328B2, “TRPV1 antagonists” (AbbVie Inc., priority 2012, dated 2014).

Experiments:
[1] = target: human TRPV1 receptor (hTRPV1) (Homo sapiens (Human), UniProt Q8NER1); assay: Acid activation assay (pH 5.0, FLIPR intracellular Ca2+); assay type: cell-based; conditions: 37.5 μM compound
rats = assay: Sodium iodoacetate-induced knee joint osteoarthritic pain model (hind limb grip force); assay type: in vivo; conditions: rat, 30 mg/kg single acute oral dose, assessed 1 hour following administration, 20 days after iodoacetate
Procedure: Unilateral knee joint osteoarthritis was induced in the rats by a single intra-articular (i.a.) injection of sodium iodoacetate (3 mg in 0.05 mL sterile isotonic saline) into the right knee joint cavity under light isoflurane anesthesia using a 26G needle. […] Pain behavioral assessment of hind limb grip force was conducted by recording the maximum compressive force exerted on the hind limb strain gauge setup, in a commercially available grip force measurement system (Columbus Instruments, Columbus, Ohio). The grip force data was converted to a maximum hindlimb cumulative compressive force (CFmax) (gram force)/kg body weight for each animal. The analgesic effects of test compounds were determined 20 days following the i.a. injection of sodium iodoacetate. The vehicle control group for each compound being tested was assigned 0% whereas the age matched naïve group was assigned as being 100% (normal). The % effect for each dose group was then expressed as % return to normalcy compared to the naïve group. Test compounds were administered orally in 10% ethanol/20% Tween 80/70% polyethylene glycol-400 vehicle at a volume of 2 mL/kg. The assessment of the analgesic effects of test compounds was made 1 hour following oral administration. […]

Chain of human TRPV1 receptor (hTRPV1) (Q8NER1 whole entry): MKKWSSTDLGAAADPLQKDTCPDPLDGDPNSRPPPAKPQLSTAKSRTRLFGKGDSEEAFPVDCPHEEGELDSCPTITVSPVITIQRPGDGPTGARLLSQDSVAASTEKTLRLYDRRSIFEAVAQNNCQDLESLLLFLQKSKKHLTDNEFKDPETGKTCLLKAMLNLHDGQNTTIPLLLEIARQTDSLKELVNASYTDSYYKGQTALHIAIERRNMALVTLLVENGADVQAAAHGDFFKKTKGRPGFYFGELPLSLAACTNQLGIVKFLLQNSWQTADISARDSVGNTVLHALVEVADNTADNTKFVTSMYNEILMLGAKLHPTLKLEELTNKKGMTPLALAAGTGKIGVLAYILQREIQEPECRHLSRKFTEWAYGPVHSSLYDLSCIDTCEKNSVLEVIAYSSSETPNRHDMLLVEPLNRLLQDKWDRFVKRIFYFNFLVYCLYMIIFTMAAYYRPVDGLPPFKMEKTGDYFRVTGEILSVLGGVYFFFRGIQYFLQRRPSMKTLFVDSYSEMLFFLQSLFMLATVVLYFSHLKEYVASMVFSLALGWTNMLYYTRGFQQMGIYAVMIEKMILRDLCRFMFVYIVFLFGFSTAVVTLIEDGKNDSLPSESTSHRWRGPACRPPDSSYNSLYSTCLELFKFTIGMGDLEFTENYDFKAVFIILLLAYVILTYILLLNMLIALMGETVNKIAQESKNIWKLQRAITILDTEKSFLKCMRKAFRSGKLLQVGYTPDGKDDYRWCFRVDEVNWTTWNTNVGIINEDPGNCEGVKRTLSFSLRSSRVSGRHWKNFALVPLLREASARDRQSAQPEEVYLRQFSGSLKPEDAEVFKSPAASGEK

remaining activity at 37.5 µM ([1]; percentage of the maximal pH 5.0-induced response remaining, read-out: hTRPV1 H+ (max % remain)): 72% | human TRPV1 H+ (max % remain) ([1]; Table 2, percentage of maximal pH 5.0-induced response): 72%
Structure (SMILES): CS(=O)(=O)Nc1ccc(CNC(=O)N[C@@H]2CC(CF)(CF)Oc3cc(C(F)(F)F)ccc32)cc1F [Example 10, N-{4-[({[(4R)-2,2-bis(fluoromethyl)-7-(trifluoromethyl)-3,4-dihydro-2H-chromen-4-yl]carbamoyl}amino)methyl]-2-fluorophenyl}methanesulfonamide]
% effect (% return to normalcy) in iodoacetate-induced osteoarthritic pain model (rats): 62%
